Publication PMC12186339, “Assessment of the structure–activity relationship of analogs of the Naegleria fowleri enolase inhibitor HEX” (RSC Medicinal Chemistry, 2025)
Where two headings read alike, the source gives them in different places.

Key:
[1] = system: N. fowleri strain TY (ATCC 30107) trophozoites; assay: In vitro growth inhibition of N. fowleri trophozoites (CellTiter-Glo); format: cell-based, Naegleria fowleri; conditions: for EC50: Naegleria fowleri, read-out: N. fowleri EC50
Description: N. fowleri strain TY (ATCC 30107) trophozoites were routinely cultured in T-75 TC-treated flasks at 37 °C and 5% CO2 in media that has been previously described.[10] All compounds described were reconstituted in DMSO for testing, with final concentrations kept at <1% in the assays. To test the inhibitory activity of the compounds on cell growth, 1 × 10^4 cells per mL were seeded in white 96-well plates with 100 μM compound. Cells and compound were incubated at 37 °C and 5% CO2 for 48 hours. CellTiter-Glo reagent (Promega G7570) was then added to each well and luminescence was read using a BioTek Synergy H1 Microplate Reader. […] All reactions were performed in technical triplicate. If growth inhibition was <50% at the concentration tested, EC50 was reported to be above that value.

[2] = target: NfENO (Naegleria fowleri, UniProt A0A6A5BXC3); assay: NfENO pyruvate kinase/lactate dehydrogenase-coupled activity assay; format: biochemical; conditions: at 100 μM
Description: Using the full-length protein (NF0118810, AmoebaDB, https://amoebadb.org/amoeba/app/), an E. coli codon-optimized construct was designed to express a truncated version of NfENO (residues 44–512) to improve solubility.[10]NfENO was heterologously expressed in BL2(DE3)R3 Rosetta cells and expression induced with 0.5 mM isopropyl-β-D-1-thiogalactopyranoside (IPTG) overnight at 37 °C. Cells were lysed using a lysozyme and 10% Triton X-100 based lysis buffer and purified with Ni-NTA agarose beads (Qiagen). Activity assays were conducted in triplicate using a pyruvate kinase/lactate dehydrogenase-coupled assay. Approximately 75 nM of NfENO in assay buffer (100 mM HEPES, pH 8.5, 3.3 mM MgSO4, 120 mM KCl, 1.75 mM ADP, 1 U pyruvate kinase/lactate dehydrogenase, and 0.4 mM NADH) was added to black 96-well plates. For assays in the presence of inhibitor, compounds were resuspended in DMSO, added to the wells, and incubated with enzyme in assay buffer for 15 minutes at room temperature. DMSO was included as a vehicle control. Assays were initiated by addition of substrate solution (3.75 mM 2-PG) and fluorescence emission at 460 nm after excitation at 360 nm was monitored every 20 seconds for 4 minutes using a Biotek Synergy H1 microplate reader. The rate of fluorescence reduction was measured to monitor the conversion of NADH to NAD+. […]

[3] = Human cell growth inhibition (CellTiter Blue); format: cell-based; conditions: HEK-293, 48 hours, read-out: Human cell line CC50
Description: To determine the amount of agent required to inhibit human cell growth 50% (the CC50 value), human embryonic kidney cells (ATCC HEK-293) were seeded at 5 × 10^4 cells per well in 100 μL of Dulbecco's modified Eagle's medium in tissue culture-treated clear bottom black 96 well plates (Gibco). Cells were incubated with compounds for 48 hours, followed by addition of CellTiter Blue (Promega, Madison, WI, USA) After a 3 hour incubation and equilibration for 15 minutes at room temperature, fluorescence (Ex: 560 nm, EM: 590 nm) was measured and the percentage of growth inhibition was calculated using untreated controls.

[4] = ATCC30107, trophozoites, 48 hours

Sequence of NfENO (A0A6A5BXC3 entry or part of it): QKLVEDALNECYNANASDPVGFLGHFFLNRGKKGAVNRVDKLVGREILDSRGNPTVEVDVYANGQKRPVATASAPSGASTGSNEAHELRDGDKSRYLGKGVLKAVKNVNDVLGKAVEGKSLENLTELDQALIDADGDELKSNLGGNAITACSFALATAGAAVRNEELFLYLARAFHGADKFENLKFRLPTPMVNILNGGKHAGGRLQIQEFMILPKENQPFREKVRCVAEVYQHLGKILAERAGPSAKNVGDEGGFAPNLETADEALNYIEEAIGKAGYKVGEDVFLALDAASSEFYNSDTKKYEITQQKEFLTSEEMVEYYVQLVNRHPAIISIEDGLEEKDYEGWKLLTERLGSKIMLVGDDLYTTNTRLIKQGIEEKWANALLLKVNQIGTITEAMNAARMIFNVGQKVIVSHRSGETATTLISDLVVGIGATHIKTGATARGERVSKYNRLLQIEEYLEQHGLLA

EC50 [1, 4] [µM]	Structure (SMILES)	EC50 ([1]; ATCC30107, 48 h) [µM]	other results
	O=C1SCCCC1P(=O)(O)O (stereo not shown) [Compound 7, (2-Oxotetrahydro-2H-thiopyran-3-yl)phosphonic acid]	> 25	effect on NfENO [2]: no effect
> 25	O=C1[C@@H](P(=O)(O)O)[C@@H]2CCCC[C@H]2CN1O [Compound 5, ((4S,4aR,8aR)-2-Hydroxy-3-oxodecahydroisoquinolin-4-yl)phosphonic acid]		
	O=C1C(P(=O)(O)O)CCCN1O (stereo not shown) [HEX, (1-hydroxy-2-oxopiperidin-3-yl)phosphonic acid, reference compound]	0.21 ± 0.02	CC50 at 48 h [3]: > 100 µM
> 25	O=C1C(S(=O)(=O)O)CCCN1O (stereo not shown) [Compound 4, 1-Hydroxy-2-oxopiperidine-3-sulfonic acid]		
	O=C1C(P(=O)(O)O)CCCN1CCO (stereo not shown) [Compound 3, (1-(2-Hydroxyethyl)-2-oxopiperidin-3-yl)phosphonic acid]	> 25	
	O=C1NCCCC1P(=O)(O)O (stereo not shown) [Compound 6, (2-Oxopiperidin-3-yl)phosphonic acid]	> 25	effect on NfENO [2]: no effect
> 25	O=C1C(P(=O)(O)O)c2ccccc2CN1O (stereo not shown) [Compound 2, (2-Hydroxy-3-oxo-1,2,3,4-tetrahydroisoquinolin-4-yl)phosphonic acid]		activity on N. fowleri growth ([1]; at higher concentrations than 25 μM (100 μM screen), 48 hours): modest activity; CC50 at 48 h ([3]; HEK-293 cells): > 25 µM
	NN1CCCC(P(=O)(O)O)C1=O (stereo not shown) [Compound 1, (1-Amino-2-oxopiperidin-3-yl)phosphonic acid]	> 25	
